In brackets after ≈: the same amount, converted by molar mass.
How the values were obtained:
[1] = system: Trichophyton mentagrophytes; assay: Disc-diffusion antifungal test; conditions: for zone of inhibition at 10000 µg/mL: read-out: Zone diameters (mm)
[2] = system: Neurospora crassa; assay: Disc-diffusion antifungal test; conditions: read-out: Zone diameters (mm)
[3] = system: Histoplasma capsulatum; assay: microbe, parasite or virus in culture; assay type: cell-based
[4] = physchem; conditions: 66% aqueous dimethylformamide, pH 7.12
[5] = system: Candida albicans; assay: Disc-diffusion antifungal test; conditions: 6-mm pads dipped in solutions of test compound
[6] = system: Blastomyces dermatitidis; assay: Standard agar-dilution test; assay type: cell-based

| Structure (SMILES) | zone of inhibition at 10000 µg/mL [1] [mm] | zone of inhibition at 10000 µg/mL [2] [mm] | MIC [3] [µg/mL] | MIC (mcg/disc) ([1]; disc-diffusion, 6-mm pads dipped in solutions of test compound) | pKa [4] | MIC (mcg/disc) [5] [mcg/disc] | MIC [6] [µg/mL] |
| --- | --- | --- | --- | --- | --- | --- | --- |
| CCCCC/C=C\C/C=C\CCCCCCCC(=O)N[C@H]1C[C@@H](O)[C@@H](OCCC)NC(=O)[C@@H]2[C@@H](O)[C@@H](C)CN2C(=O)[C@H]([C@@H](C)O)NC(=O)[C@H]([C@H](O)[C@@H](O)c2ccc(O)cc2)NC(=O)[C@@H]2C[C@@H](O)CN2C(=O)[C@H]([C@@H](C)O)NC1=O [R = n-propyl] | 35 | 20 | – | – | – | – | – |
| CCCCC/C=C\C/C=C\CCCCCCCC(=O)N[C@H]1C[C@@H](O)[C@@H](OC)NC(=O)[C@@H]2[C@@H](O)[C@@H](C)CN2C(=O)[C@H]([C@@H](C)O)NC(=O)[C@H]([C@H](O)[C@@H](O)c2ccc(O)cc2)NC(=O)[C@@H]2C[C@@H](O)CN2C(=O)[C@H]([C@@H](C)O)NC1=O | – | – | 100 (≈ 93.1 µM) | 0.078 | ~12.9 | 1.25 | 100 (≈ 93.1 µM) |
| CCCCC/C=C\C/C=C\CCCCCCCC(=O)N[C@H]1C[C@@H](O)[C@@H](OCCCCCC)NC(=O)[C@@H]2[C@@H](O)[C@@H](C)CN2C(=O)[C@H]([C@@H](C)O)NC(=O)[C@H]([C@H](O)[C@@H](O)c2ccc(O)cc2)NC(=O)[C@@H]2C[C@@H](O)CN2C(=O)[C@H]([C@@H](C)O)NC1=O [R = n-hexyl] | 35 | 25 | – | – | – | – | – |

Reference: EP0021685A1
